Positions of bridges follow the written chain, without caps; N, C: chain ends. Non-standard residues stand in square brackets, D forms with d. Residues, ends and D or L forms follow the SMILES beside them. *: point of attachment. DOTA = O=C(O)CN1CCN(CC(=O)O)CCN(CC(=O)*)CCN(CC(=O)O)CC1; Phe(4-COOH) = N[C@@H](Cc1ccc(C(=O)O)cc1)C(=O)O; Trp(5-F) = N[C@@H](Cc1c[nH]c2ccc(F)cc12)C(=O)O; Ala(4-THP) = N[C@@H](CC1CCOCC1)C(=O)O; AEF = NCCOc1ccc(C[C@H](N)C(=O)O)cc1; 4Pal = N[C@@H](Cc1ccncc1)C(=O)O; Tle = CC(C)(C)[C@H](N)C(=O)O; hLeu = CC(C)CC[C@H](N)C(=O)O
Each compound was assayed against T1, human 4lg B7-H3 (Homo sapiens, UniProt Q5ZPR3) (assay: Affinity determination by surface plasmon resonance (SPR) to 4Ig B7-H3). Conditions: SPR KD—25° C., 4Ig B7-H3; 25° C. flow cell temperature.
T1 sequence (Q5ZPR3 29-534): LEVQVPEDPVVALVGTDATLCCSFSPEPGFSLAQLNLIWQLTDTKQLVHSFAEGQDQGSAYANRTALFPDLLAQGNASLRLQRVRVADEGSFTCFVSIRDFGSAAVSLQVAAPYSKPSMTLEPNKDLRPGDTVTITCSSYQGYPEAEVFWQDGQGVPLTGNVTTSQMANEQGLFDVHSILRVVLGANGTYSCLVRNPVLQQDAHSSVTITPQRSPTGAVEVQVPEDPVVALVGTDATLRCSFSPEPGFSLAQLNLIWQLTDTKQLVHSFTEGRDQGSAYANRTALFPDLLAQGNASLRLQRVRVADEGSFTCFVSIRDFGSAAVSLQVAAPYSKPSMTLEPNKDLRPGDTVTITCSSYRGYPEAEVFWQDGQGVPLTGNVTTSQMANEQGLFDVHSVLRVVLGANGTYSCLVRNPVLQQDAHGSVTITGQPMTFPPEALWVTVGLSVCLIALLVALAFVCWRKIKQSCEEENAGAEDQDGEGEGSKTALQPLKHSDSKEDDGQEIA

Question: How did the Kd turn out when `CC(=O)N[C@@H](CCC(C)C)C(=O)N[C@@H](Cc1ccc(O)cc1)C(=O)N[C@H]1CSSC[C@@H](C(=O)N[C@@H](Cc2c[nH]c3ccccc23)C(=O)N[C@@H](Cc2ccccc2)C(=O)N[C@H](C(=O)N[C@H](CCCCNC(=O)CN2CCN(CC(=O)O)CCN(CC(=O)O)CCN(CC(=O)O)CC2)C(N)=O)[C@@H](C)O)NC(=O)[C@H](Cc2ccc(O)cc2)NC(=O)[C@H](C(C)C)NC(=O)[C@H](CC(=O)O)NC(=O)[C@H](Cc2ccncc2)NC(=O)[C@H](CCCCN)NC(=O)CNC(=O)[C@H](C(C)C)NC1=O` [compound 155, Ac-hLeu-Y-C-V-G-K-4PyA-D-V-Y-C-W-F-Thr-dLys(DOTA)-CONH2] (Ac-[hLeu]YCVGK[4Pal]DVYCWFT[dK](DOTA)-NH2; disulfide 3-11) was run?
Answer: The Kd was under 1 nM.

Question: Which Kd does the source give for `CC(=O)N[C@@H](CCC(C)C)C(=O)N[C@@H](Cc1ccc(O)cc1)C(=O)N[C@H]1CSSC[C@@H](C(=O)N[C@@H](Cc2c[nH]c3ccc(F)cc23)C(=O)N[C@H](C(=O)N[C@H](C(=O)N[C@H](CCCCNC(=O)CN2CCN(CC(=O)O)CCN(CC(=O)O)CCN(CC(=O)O)CC2)C(=O)O)[C@@H](C)O)C(C)(C)C)NC(=O)[C@H](Cc2ccc(O)cc2)NC(=O)[C@H](C(C)C)NC(=O)[C@H](CC(=O)O)NC(=O)[C@H](CC2CCOCC2)NC(=O)[C@H](CCCCN)NC(=O)CNC(=O)[C@H](C(C)(C)C)NC1=O` [compound 335, Ac-hLeu-Y-C-Tbg-G-K-ThpA-D-V-Y-C-5FW-Tbg-Thr-dLys(DOTA)-COOH] (Ac-[hLeu]YC[Tle]GK[Ala(4-THP)]DVYC[Trp(5-F)][Tle]T[dK](DOTA)-OH; disulfide 3-11) here?
Answer: Its Kd is 1 to 10 nM.

Question: `CC(=O)N[C@@H](CCC(C)C)C(=O)N[C@@H](Cc1ccc(O)cc1)C(=O)N[C@H]1CSSC[C@@H](C(=O)N[C@@H](Cc2c[nH]c3ccc(F)cc23)C(=O)N[C@@H](Cc2ccccc2)C(=O)N2CCC[C@H]2C(N)=O)NC(=O)[C@H](Cc2ccc(O)cc2)NC(=O)[C@H](C(C)C)NC(=O)[C@H](CC(=O)O)NC(=O)[C@H](Cc2ccc(C(=O)O)cc2)NC(=O)[C@H](CCCCNC(=O)CN2CCN(CC(=O)O)CCN(CC(=O)O)CCN(CC(=O)O)CC2)NC(=O)CNC(=O)[C@H](C(C)C)NC1=O` [compound 289, Ac-hLeu-Y-C-V-G-Lys(DOTA)-4COOHPhe-D-V-Y-C-5FW-F-Pro-CONH2] (Ac-[hLeu]YCVGK(DOTA)[Phe(4-COOH)]DVYC[Trp(5-F)]FP-NH2; disulfide 3-11) was tested. Which Kd did it give?
Answer: Its Kd is 1 to 10 nM.

Question: For `CSCC[C@H](NC(C)=O)C(=O)N[C@@H](Cc1ccc(O)cc1)C(=O)N[C@H]1CSSC[C@@H](C(=O)N[C@@H](Cc2c[nH]c3ccccc23)C(=O)N[C@@H](Cc2ccccc2)C(N)=O)NC(=O)[C@H](Cc2ccc(O)cc2)NC(=O)[C@H](C(C)C)NC(=O)[C@H](CC(=O)O)NC(=O)[C@H](Cc2ccc(O)cc2)NC(=O)[C@H](CCCCN)NC(=O)CNC(=O)[C@H](C(C)C)NC1=O` [compound 1, Ac-M-Y-C-V-G-K-Y-D-V-Y-C-W-F-CONH2] (Ac-MYCVGKYDVYCWF-NH2; disulfide 3-11), which Kd is on record?
Answer: Its Kd is 100 to 300 nM.

Question: Which Kd does the source give for `CC(=O)N[C@@H](CCC(C)C)C(=O)N[C@@H](Cc1ccc(O)cc1)C(=O)N[C@H]1CSSC[C@@H](C(=O)N[C@@H](Cc2c[nH]c3ccc(F)cc23)C(=O)N[C@@H](Cc2ccccc2)C(=O)N[C@H](C(N)=O)[C@@H](C)O)NC(=O)[C@H](Cc2ccc(O)cc2)NC(=O)[C@H](C(C)C)NC(=O)[C@H](CC(=O)O)NC(=O)[C@H](Cc2ccc(OCCNC(=O)CN3CCN(CC(=O)O)CCN(CC(=O)O)CCN(CC(=O)O)CC3)cc2)NC(=O)[C@H](CCCCN)NC(=O)CNC(=O)[C@H](C(C)C)NC1=O` [compound 295, Ac-hLeu-Y-C-V-G-K-AEF(DOTA)-D-V-Y-C-5FW-F-Thr-CONH2] (Ac-[hLeu]YCVGK[AEF](DOTA)DVYC[Trp(5-F)]FT-NH2; disulfide 3-11) here?
Answer: The Kd was under 1 nM.

Same assay, conditions: SPR KD—37° C., 4Ig B7-H3; 37° C. flow cell temperature

Question: `CSCC[C@H](NC(C)=O)C(=O)N[C@@H](Cc1ccc(O)cc1)C(=O)N[C@H]1CSSC[C@@H](C(=O)N[C@@H](Cc2c[nH]c3ccccc23)C(=O)N[C@@H](Cc2ccccc2)C(N)=O)NC(=O)[C@H](Cc2ccc(O)cc2)NC(=O)[C@H](C(C)C)NC(=O)[C@H](CC(=O)O)NC(=O)[C@H](Cc2ccc(O)cc2)NC(=O)[C@H](CCCCN)NC(=O)CNC(=O)[C@H](C(C)C)NC1=O` [compound 1, Ac-M-Y-C-V-G-K-Y-D-V-Y-C-W-F-CONH2] (Ac-MYCVGKYDVYCWF-NH2; disulfide 3-11) was tested. Which Kd did it give?
Answer: Its Kd is 100 to 300 nM.

Question: How did the Kd turn out when `CC(=O)N[C@@H](CCC(C)C)C(=O)N[C@@H](Cc1ccc(O)cc1)C(=O)N[C@H]1CSSC[C@@H](C(=O)N[C@@H](Cc2c[nH]c3ccc(F)cc23)C(=O)N[C@@H](Cc2ccccc2)C(=O)N[C@H](C(N)=O)[C@@H](C)O)NC(=O)[C@H](Cc2ccc(O)cc2)NC(=O)[C@H](C(C)C)NC(=O)[C@H](CC(=O)O)NC(=O)[C@H](Cc2ccc(OCCNC(=O)CN3CCN(CC(=O)O)CCN(CC(=O)O)CCN(CC(=O)O)CC3)cc2)NC(=O)[C@H](CCCCN)NC(=O)CNC(=O)[C@H](C(C)C)NC1=O` [compound 295, Ac-hLeu-Y-C-V-G-K-AEF(DOTA)-D-V-Y-C-5FW-F-Thr-CONH2] (Ac-[hLeu]YCVGK[AEF](DOTA)DVYC[Trp(5-F)]FT-NH2; disulfide 3-11) was run?
Answer: Its Kd is under 1 nM.
